Reference: patent US10815238B2, “Antimicrobial compounds and methods of making and using the same” (BIOVERSYS AG, priority 2013, dated 2020)

Tests used:
[1] = tested on: Eschericia coli (E. coli) strain ATCC25922; experiment: Standard microdilution assay, MIC against E. coli ATCC25922; type: cell-based; conditions: Escherichia coli; E. coli strain ATCC25922, standard microdilution assay; cutoff 16 micrograms/mL; read-out: MIC E. Coli
Outline: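 Scoring as + or − used a 16 micrograms/mL cutoff on minimum inhibitory concentrations. These came from CLSI-standard microdilution, quality-controlled with reference strains tested in the same run.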

[2] = tested on: Staphylococcus aureus (S. aureus) 11540 strain; experiment: Standard microdilution assay, MIC against S. aureus 11540; type: cell-based; conditions: S. aureus 11540 strain, standard microdilution assay, cutoff 16 micrograms/mL, read-out: MIC S. aureus
Experimental: The in vitro activity of the compounds of the present invention can be determined. Antimicrobial testing is typically performed to determine the minimum inhibitory concentration (MIC). Minimum inhibitory concentrations (MICs) are determined by the microdilution method in a final volume of 100 μl according to protocols outlined by The Clinical and Laboratory Standards Institute (CLSI). Performance standards for reference strains are assessed within the same experimental design to maintain quality control. See, for example, Clinical Laboratory Standards Institute: Methods for dilution antimicrobial susceptibility tests for bacteria that grow aerobically M7-A8. Approved Standard-Eighth Edition. Wayne, Pa.: CLSI; December 2008; and Clinical Laboratory Standards Institute: Performance Standards for Antimicrobial Susceptibility Testing M100-S20; Approved Standard-Twentieth Edition. Wayne, Pa.: CLSI; June 2010.
The compounds of the present invention were tested for antimicrobial activity. The Compounds 1-582 were run against Eschericia coli (E. coli) strain ATCC25922 and Compounds 320-582 were run against Staphylococcus aureus (S. aureus) 11540 strain using a standard microdilution assay to determine minimum inhibitory concentrations (MICs). […] It will be recognized by one skilled in the art that the compounds can be assessed against other bacterial organisms and that the presentation of data for activity against Eschericia coli and Staphylococcus aureus are illustrative and in no way is intended to limit the scope of the present invention. The compounds of the present invention can be assayed against a range of other microorganisms depending upon the performance activity desired to be gathered. Furthermore, the “+” and “−” representation and the selection of a cutoff value of 16 micrograms/mL is also illustrative and in no way is intended to limit the scope of the present invention.

SMILES	MIC [1]	MIC [2]
C[C@H](N)CCCc1cc(OC(F)(F)F)c(F)c(-c2cc3cn(-c4ccc([C@H](C)N[C@@H](CCNC(=N)N)C(=O)O)cc4)c(=O)nc3[nH]2)c1 [Compound 364]	> 16 µg/mL	> 16 µg/mL
C=C[C@@H]1COC[C@H](c2ccc(-n3cc4cc(-c5cc(CCC[C@H](C)N)cc(Cl)c5F)[nH]c4nc3=O)cc2)N1 [Compound 374]	> 16 µg/mL	> 16 µg/mL
C[C@H](N)CCCc1cc(Cl)c(F)c(-c2cc3cn(-c4ccc(CN[C@@H](CN)CCNC(=N)N)cc4)c(=O)nc3[nH]2)c1 [Compound 379]	< 16 µg/mL	< 16 µg/mL
C[C@H](N)CCCc1cc(OC(F)(F)F)c(F)c(-c2cc3cn(-c4ccc(CN[C@@H](CN)CCNC(=N)N)cc4)c(=O)nc3[nH]2)c1 [Compound 380]	< 16 µg/mL	< 16 µg/mL
C[C@H](N)CCCc1cc(Cl)c(F)c(-c2cc3cn(-c4ccc(CN[C@H](C)C[C@@H](CCO)NC(=N)N)cc4)c(=O)nc3[nH]2)c1 [Compound 381]	< 16 µg/mL	< 16 µg/mL
C=C[C@H](CCNC(=N)N)N[C@@H](C)c1ccc(-n2cc3cc(-c4cc(CCC[C@H](C)N)cc(Cl)c4F)[nH]c3nc2=O)cc1 [Compound 382]	< 16 µg/mL	< 16 µg/mL
C=C[C@H](CCNC(=N)N)N[C@@H](C)c1ccc(-n2cc3cc(-c4cc(CCC[C@H](C)N)cc(OC(F)(F)F)c4F)[nH]c3nc2=O)cc1 [Compound 383]	< 16 µg/mL	< 16 µg/mL
C[C@H](N)CCCc1cc(Cl)c(F)c(-c2cc3cn(-c4ccc([C@@H]5COC[C@H](CCNC(=N)N)N5)cc4)c(=O)nc3[nH]2)c1 [Compound 384]	< 16 µg/mL	< 16 µg/mL
C[C@H](N)CCCc1cc(Cl)c(F)c(-c2cc3cn(-c4ccc([C@@H]5COC[C@H](CCN)N5)cc4)c(=O)nc3[nH]2)c1 [Compound 385]	< 16 µg/mL	< 16 µg/mL
C[C@H](N)CCCc1cc(Cl)c(F)c(-c2cc3cn(-c4ccc([C@H](C)NCC[C@@H]5COC(=O)N5)cc4)c(=O)nc3[nH]2)c1 [Compound 386]	< 16 µg/mL	< 16 µg/mL
C=C[C@@H](CCNC(=N)N)NCc1ccc(-n2cc3cc(-c4cc(CCC[C@H](C)N)cc(Cl)c4F)[nH]c3nc2=O)cc1 [Compound 387]	< 16 µg/mL	< 16 µg/mL
C=C[C@@H](CCNC(=N)N)NCc1ccc(-n2cc3cc(-c4cc(CCC[C@H](C)N)cc(OC(F)(F)F)c4F)[nH]c3nc2=O)cc1 [Compound 388]	< 16 µg/mL	< 16 µg/mL
C[C@H](N)CCCc1cc(Cl)c(F)c(-c2cc3cn(-c4ccc([C@H](C)NCC[C@@H](/C=C/Cl)NC(=N)N)cc4)c(=O)nc3[nH]2)c1 [Compound 389]	< 16 µg/mL	< 16 µg/mL
C[C@H](N)CCCc1cc(Cl)c(F)c(-c2cc3cn(-c4ccc([C@H]5COC[C@@H](CO)N5)cc4)c(=O)nc3[nH]2)c1 [Compound 390]	> 16 µg/mL	> 16 µg/mL
C[C@H](N)CCCc1cc(Cl)c(F)c(-c2cc3cn(-c4ccc([C@H]5COC[C@@H](c6c[nH]nn6)N5)cc4)c(=O)nc3[nH]2)c1 [Compound 391]	> 16 µg/mL	> 16 µg/mL
COc1ccc(Cn2cc([C@@H]3COC[C@H](c4ccc(-n5cc6cc(-c7cc(CCC[C@H](C)N)cc(Cl)c7F)[nH]c6nc5=O)cc4)N3)nn2)cc1 [Compound 392]	> 16 µg/mL	< 16 µg/mL
N=C(N)N[C@H](CN)CCNCc1ccc(-n2cc3cc(-c4cc(CCC[C@@H](N)CO)cc(Cl)c4F)[nH]c3nc2=O)cc1 [Compound 393]	< 16 µg/mL	< 16 µg/mL
N=C(N)NCC[C@H](CN)NCc1ccc(-n2cc3cc(-c4cc(CCC[C@@H](N)CO)cc(Cl)c4F)[nH]c3nc2=O)cc1 [Compound 394]	< 16 µg/mL	< 16 µg/mL
C=C[C@@H](CCNC(=N)N)NCc1ccc(-n2cc3cc(-c4cc(CCC[C@@H](N)CO)cc(Cl)c4F)[nH]c3nc2=O)cc1 [Compound 395]	< 16 µg/mL	< 16 µg/mL
C[C@H](N)CCCc1cc(OC(F)(F)F)c(F)c(-c2cc3cn(-c4ccc(CN[C@H](C)C[C@H](CCO)NC(=N)N)cc4)c(=O)nc3[nH]2)c1 [Compound 396]	< 16 µg/mL	< 16 µg/mL
C[C@H](N)CCCc1cc(Cl)c(F)c(-c2cc3cn(-c4ccc(CN[C@H](C)C[C@H](CN)NC(=N)N)cc4)c(=O)nc3[nH]2)c1 [Compound 397]	< 16 µg/mL	< 16 µg/mL
C[C@H](N)CCCc1cc(OC(F)(F)F)c(F)c(-c2cc3cn(-c4ccc(CN[C@H](C)C[C@H](CN)NC(=N)N)cc4)c(=O)nc3[nH]2)c1 [Compound 398]	< 16 µg/mL	< 16 µg/mL

Other lines, results leading:

MIC [1]	MIC [2]	SMILES
< 16 µg/mL	< 16 µg/mL	C[C@H](N)CCCc1cc(OC(F)(F)F)c(F)c(-c2cc3cn(-c4ccc([C@@H]5COC[C@H](CCNC(=N)N)N5)cc4)c(=O)nc3[nH]2)c1 [Compound 357]
< 16 µg/mL	< 16 µg/mL	C[C@H](N)CCCc1cc(OC(F)(F)F)c(F)c(-c2cc3cn(-c4ccc([C@@H]5COC[C@H](CCN)N5)cc4)c(=O)nc3[nH]2)c1 [Compound 358]
< 16 µg/mL	< 16 µg/mL	C[C@H](N)CCCc1cc(Cl)c(F)c(-c2cc3cn(-c4ccc(CN[C@@H](C)C[C@@H](CCO)NC(=N)N)cc4)c(=O)nc3[nH]2)c1 [Compound 359]
< 16 µg/mL	< 16 µg/mL	C[C@H](N)CCCc1cc(Cl)c(F)c(-c2cc3cn(-c4ccc(CN[C@@H](C)C[C@H](CCO)NC(=N)N)cc4)c(=O)nc3[nH]2)c1 [Compound 360]
< 16 µg/mL	< 16 µg/mL	C[C@H](N)CCCc1cc(OC(F)(F)F)c(F)c(-c2cc3cn(-c4ccc(CN[C@@H](C)C[C@H](CCO)NC(=N)N)cc4)c(=O)nc3[nH]2)c1 [Compound 361]
< 16 µg/mL	< 16 µg/mL	COC(=O)[C@H](CCNC(=N)N)N[C@@H](C)c1ccc(-n2cc3cc(-c4cc(CCC[C@H](C)N)cc(OC(F)(F)F)c4F)[nH]c3nc2=O)cc1 [Compound 362]
< 16 µg/mL	< 16 µg/mL	C[C@H](N)CCCc1cc(Cl)c(F)c(-c2cc3cn(-c4ccc([C@H](C)N[C@@H](CCNC(=N)N)C(N)=O)cc4)c(=O)nc3[nH]2)c1 [Compound 363]
< 16 µg/mL	< 16 µg/mL	C[C@H](N)CCCc1cc(Cl)c(F)c(-c2cc3cn(-c4ccc([C@H](C)NCC[C@@H](CSc5nccs5)NC(=N)N)cc4)c(=O)nc3[nH]2)c1 [Compound 365]
< 16 µg/mL	< 16 µg/mL	C[C@H](N)CCCc1cc(OC(F)(F)F)c(F)c(-c2cc3cn(-c4ccc([C@H](C)N[C@H](CO)CCNC(=N)N)cc4)c(=O)nc3[nH]2)c1 [Compound 366]
< 16 µg/mL	< 16 µg/mL	C[C@H](N)CCCc1cc(Cl)c(F)c(-c2cc3cn(-c4ccc([C@H](C)N[C@H](CO)CCNC(=N)N)cc4)c(=O)nc3[nH]2)c1 [Compound 367]
< 16 µg/mL	< 16 µg/mL	C[C@H](N)CCCc1cc(Cl)c(F)c(-c2cc3cn(-c4ccc([C@H](C)NCC[C@H](CNC(=O)CN)NC(=N)N)cc4)c(=O)nc3[nH]2)c1 [Compound 368]
< 16 µg/mL	< 16 µg/mL	C[C@H](N)CCCc1cc(OC(F)(F)F)c(F)c(-c2cc3cn(-c4ccc([C@H](C)NCC[C@H](CNC(=O)CN)NC(=N)N)cc4)c(=O)nc3[nH]2)c1 [Compound 369]
< 16 µg/mL	< 16 µg/mL	C[C@@H](N)CCCc1cc(Cl)c(F)c(-c2cc3cn(-c4ccc([C@@H](C)NCCCNC(=N)N)cc4)c(=O)nc3[nH]2)c1 [Compound 370]
< 16 µg/mL	< 16 µg/mL	C=C[C@H](C[C@@H](C)NCc1ccc(-n2cc3cc(-c4cc(CCC[C@H](C)N)cc(Cl)c4F)[nH]c3nc2=O)cc1)NC(=N)N [Compound 371]
< 16 µg/mL	< 16 µg/mL	C=C[C@H](C[C@@H](C)NCc1ccc(-n2cc3cc(-c4cc(CCC[C@H](C)N)cc(OC(F)(F)F)c4F)[nH]c3nc2=O)cc1)NC(=N)N [Compound 372]
< 16 µg/mL	< 16 µg/mL	C=C[C@@H](C[C@@H](C)NCc1ccc(-n2cc3cc(-c4cc(CCC[C@H](C)N)cc(Cl)c4F)[nH]c3nc2=O)cc1)NC(=N)N [Compound 373]
< 16 µg/mL	< 16 µg/mL	C[C@H](N)CCCc1cc(Cl)c(F)c(-c2cc3cn(-c4ccc(CNCC[C@@H](CN)NC(=N)N)cc4)c(=O)nc3[nH]2)c1 [Compound 375]
< 16 µg/mL	< 16 µg/mL	C[C@H](N)CCCc1cc(OC(F)(F)F)c(F)c(-c2cc3cn(-c4ccc(CNCC[C@@H](CN)NC(=N)N)cc4)c(=O)nc3[nH]2)c1 [Compound 376]
< 16 µg/mL	< 16 µg/mL	N=C(N)NCC[C@H](CO)NCc1ccc(-n2cc3cc(-c4cc(CCC[C@@H](N)CO)cc(Cl)c4F)[nH]c3nc2=O)cc1 [Compound 377]
< 16 µg/mL	< 16 µg/mL	COC[C@@H](CCNC(=N)N)NCc1ccc(-n2cc3cc(-c4cc(CCC[C@@H](N)CO)cc(Cl)c4F)[nH]c3nc2=O)cc1 [Compound 378]
